Read-outs that look alike come from different tables or passages of the source.

A short description of the series: Log P by HPLC on reversed phase columns, method [a] (EEC directive 79/831 Annex V.A8). Format: physicochemical. The conditions noted are these: for chromatographic logP: reversed phase HPLC column. The method, then: Measurement of Log P values as provided herein was performed according to EEC directive 79/831 Annex V.A8 by HPLC (High Performance Liquid Chromatography) on reversed phase columns with the following methods: • ^[a] Log P value is determined by measurement of LC-UV, in an acidic range, with 0.1% formic acid in water and acetonitrile as eluent (linear gradient from 10% acetonitrile to 95% acetonitrile). • ^[b] Log P value is determined by measurement of LC-UV, in a neutral range, with 0.001 molar ammonium acetate solution in water and acetonitrile as eluent (linear gradient from 10% acetonitrile to 95% acetonitrile). • ^[c] Log P value is determined by measurement of LC-UV, in an acidic range, with 0.1% phosphoric acid and acetonitrile as eluent (linear gradient from 10% acetonitrile to 95% acetonitrile). If more than one Log P value is available within the same method, all the values are given and separated by “+”. Calibration was done with straight-chain alkan2-ones (with 3 to 16 carbon atoms) with known Log P values (measurement of Log P values using retention times with linear interpolation between successive alkanones). Lambda-max-values were determined using UV-spectra from 200 nm to 400 nm and the peak values of the chromatographic signals In table 1, the log P values were determined according to method [^a]. In table 2, the log P values were determined according to method [^a].

Where [1] appears, read: log P determined according to method [a] (HPLC on reversed phase columns).
Where [2] appears, read: log P determined according to method [a] (HPLC on reversed phase columns), read-out: logP.

As usually defined, the logP is the decadic logarithm of the partition coefficient of the neutral form, usually between octanol and water. A high value points to a more lipophilic compound. The molecule `Cc1ccccc1Nc1ncc(-c2nnc(C(F)F)o2)cn1` [Example I-086] displayed a logP under setting [1] of 2.51.
Under setting [1], `CN(c1ccccc1)c1ncc(-c2nnc(C(F)F)o2)cn1` [Example I-087] gave a logP of 2.80.
Molecule `FC(F)c1nnc(-c2cnc(NCc3ccccc3)nc2)o1` [Example I-088] returned a logP under setting [1] of 2.57.
With `COc1ccc(-c2ncc(-c3nnc(C(F)F)o3)cn2)cc1` [Example I-089], the logP under setting [1] is 3.01.
The molecule `FC(F)c1nnc(-c2cnc(OCc3ccccc3)nc2)o1` [Example I-090] had a logP under setting [1] of 2.75.
In the case of `Fc1ccc(Cc2ncc(-c3nnc(C(F)F)o3)cn2)cc1` [Example I-091], the log partition coefficient (logP) under setting [1] is reported as 2.59.
Under setting [1], `FC(F)c1nnc(-c2cnc(Sc3ccccc3)nc2)o1` [Example I-092] yielded a log partition coefficient (logP) of 3.04.
In turn, `Fc1ccccc1Nc1ncc(-c2nnc(C(F)F)o2)cn1` [Example I-093] gave a log partition coefficient (logP) under setting [1] of 2.43.
Molecule `Fc1cccc(Nc2ncc(-c3nnc(C(F)F)o3)cn2)c1` [Example I-094] showed a logP under setting [1] of 2.77.
`Fc1ccc(Nc2ncc(-c3nnc(C(F)F)o3)cn2)cc1` [Example I-095] gave a log partition coefficient (logP) under setting [1] of 2.64.
Regarding `CCn1nccc1Nc1ncc(-c2nnc(C(F)F)o2)cn1` [Example I-096], the logP under setting [1] is 1.49.
Take `CC1(C2(Nc3ncc(-c4nnc(C(F)F)o4)cn3)CC2)CC1` [Example I-097]: the logP under setting [1] is given as 2.89.
Consider `Fc1ccc(Oc2ncc(-c3nnc(C(F)F)o3)cn2)cc1` [Example I-098], for which the logP under setting [1] was 2.51.
Molecule `FC(F)c1nnc(-c2cnc(-c3ccccc3Cl)nc2)o1` [Example I-099] showed a logP under setting [1] of 3.32.
For the molecule `COC(=O)c1ccc(-c2nnc(C(F)(F)F)s2)cc1` [I.011, methyl 4-[5-(trifluoromethyl)-1,3,4-thiadiazol-2-yl]benzoate], the chromatographic logP (Method A: LC-UV, acidic range, 0.1% formic acid in water and acetonitrile, read-out: Log P) amounted to 3.23.
Turning to `FC(F)c1nnc(-c2cnc(-c3cccc(Cl)c3)nc2)o1` [I.100, 2-(3-chlorophenyl)-5-[5-(difluoromethyl)-1,3,4-oxadiazol-2-yl]pyrimidine], under setting [2], the chromatographic logP worked out at 4.21.
Same read-out and setting: the result for `FC(F)c1nnc(-c2cnc(-c3ccc(Cl)cc3)nc2)o1` [I.101, 2-(4-chlorophenyl)-5-[5-(difluoromethyl)-1,3,4-oxadiazol-2-yl]pyrimidine] reads 3.6; that for `FC(F)c1nnc(-c2cnc(-c3ccnc(Cl)c3)nc2)o1` [I.102, 2-(2-chloropyridin-4-yl)-5-[5-(difluoromethyl)-1,3,4-oxadiazol-2-yl]pyrimidine], 2.59; that for `FC(F)c1nnc(-c2cnc(-c3cncc(Cl)c3)nc2)o1` [I.103, 2-(5-chloropyridin-3-yl)-5-[5-(difluoromethyl)-1,3,4-oxadiazol-2-yl]pyrimidine], 2.59.
The same measure, in the same setting: the result for `COC(=O)C1(Nc2ncc(-c3nnc(C(F)F)o3)cn2)CC1` [I.104, methyl 1-({5-[5-(difluoromethyl)-1,3,4-oxadiazol-2-yl]pyrimidin-2-yl}amino)cyclopropanecarboxylate] reads 1.64; that for `FC(F)c1nnc(-c2cnc(N3Cc4ccccc4C3)nc2)o1` [I.106, 2-{5-[5-(difluoromethyl)-1,3,4-oxadiazol-2-yl]pyrimidin-2-yl}isoindoline], 3.1.
With `COc1ccccc1Cc1ncc(-c2nnc(C(F)F)o2)cn1` [I.107, 5-[5-(difluoromethyl)-1,3,4-oxadiazol-2-yl]-2-(2-methoxybenzyl)pyrimidine], under setting [2], the chromatographic logP stood at 2.51.
For the molecule `COc1ccccc1Nc1ncc(-c2nnc(C(F)F)o2)cn1` [I.109, 5-[5-(difluoromethyl)-1,3,4-oxadiazol-2-yl]-N-(2-methoxyphenyl)pyrimidin-2-amine], under setting [2], the chromatographic logP was 2.8.
Same read-out and setting: the value for `Fc1ccccc1CNc1ncc(-c2nnc(C(F)F)o2)cn1` [I.111, 5-[5-(difluoromethyl)-1,3,4-oxadiazol-2-yl]-N-(2-fluorobenzyl)pyrimidin-2-amine] was 2.62.
On to `FC(F)c1nnc(-c2cnc(Nc3ccccc3Cl)nc2)o1` [I.114, N-(2-chlorophenyl)-5-[5-(difluoromethyl)-1,3,4-oxadiazol-2-yl]pyrimidin-2-amine], for which, under setting [2], the chromatographic logP was 2.92.
`CCOC(=O)C1(Nc2ncc(-c3nnc(C(F)F)o3)cn2)CC1` [I.117, ethyl 1-({5-[5-(difluoromethyl)-1,3,4-oxadiazol-2-yl]pyrimidin-2-yl}amino)cyclopropanecarboxylate]: the chromatographic logP under setting [2] was 1.94.
For `FC(F)c1nnc(-c2cnc(Nc3ccccc3C3CC3)nc2)o1` [I.119, N-(2-cyclopropylphenyl)-5-[5-(difluoromethyl)-1,3,4-oxadiazol-2-yl]pyrimidin-2-amine], the chromatographic logP under setting [2] worked out at 3.1.
`C[C@@H](Nc1ncc(-c2nnc(C(F)F)o2)cn1)c1ccc(F)cc1` [I.125a, 5-[5-(difluoromethyl)-1,3,4-oxadiazol-2-yl]-N-[(1R)-1-(4-fluorophenyl)ethyl]pyrimidin-2-amine]: under setting [2], the chromatographic logP was 2.86.
Take `C[C@H](Nc1ncc(-c2nnc(C(F)F)o2)cn1)c1ccc(F)cc1` [I.125b, 5-[5-(difluoromethyl)-1,3,4-oxadiazol-2-yl]-N-[(1S)-1-(4-fluorophenyl)ethyl]pyrimidin-2-amine]: the chromatographic logP under setting [2] was determined as 2.85.
Turning to `FC(F)c1nnc(-c2cnc(NC3(C4CCCCC4)CC3)nc2)o1` [I.126, N-(1-cyclohexylcyclopropyl)-5-[5-(difluoromethyl)-1,3,4-oxadiazol-2-yl]pyrimidin-2-amine], the chromatographic logP under setting [2] came to 3.57.
The same measure, in the same setting: the result for `FC(F)c1nnc(-c2cnc(NCc3ccccc3Cl)nc2)o1` [I.128, N-(2-chlorobenzyl)-5-[5-(difluoromethyl)-1,3,4-oxadiazol-2-yl]pyrimidin-2-amine] reads 2.95; that for `Fc1cccc(F)c1CNc1ncc(-c2nnc(C(F)F)o2)cn1` [I.129, N-(2,6-difluorobenzyl)-5-[5-(difluoromethyl)-1,3,4-oxadiazol-2-yl]pyrimidin-2-amine], 2.67.
Take `Fc1ccccc1Nc1ncc(-c2nnc(C(F)(F)F)s2)cn1` [I.130, N-(2-fluorophenyl)-5-[5-(trifluoromethyl)-1,3,4-thiadiazol-2-yl]pyrimidin-2-amine]: the chromatographic logP under setting [2] came out at 3.3.
Still for that read-out and setting: the value for `CCC(C)(Nc1ncc(-c2nnc(C(F)F)o2)cn1)c1ccccc1` (stereo not shown) [I.138, 5-[5-(difluoromethyl)-1,3,4-oxadiazol-2-yl]-N-(2-phenylbutan-2-yl)pyrimidin-2-amine] was 3.5.
Still for that read-out and setting: the result for `FC(F)c1nnc(-c2cnc(OC3(c4ccccc4)COC3)nc2)o1` [I.142, 5-[5-(difluoromethyl)-1,3,4-oxadiazol-2-yl]-2-[(3-phenyloxetan-3-yl)oxy]pyrimidine] reads 2.51; that for `FC(F)c1nnc(-c2cnc(OC3(c4ccccn4)COC3)nc2)o1` [I.143, 5-[5-(difluoromethyl)-1,3,4-oxadiazol-2-yl]-2-{[3-(pyridin-2-yl)oxetan-3-yl]oxy}pyrimidine], 1.66.
On the same count and under the same terms, the value for `CCON(Cc1ccccc1)c1ncc(-c2nnc(C(F)F)o2)cn1` [I.148, N-benzyl-N-{5-[5-(difluoromethyl)-1,3,4-oxadiazol-2-yl]pyrimidin-2-yl}-O-ethylhydroxylamine] was 3.28.

(Values after patent publication US20220144815A1, “1,3,4-OXADIAZOLES AND THEIR DERIVATIVES AS NEW ANTIFUNGAL AGENTS” (Bayer Aktiengesellschaft, priority 2018, published 2022).)
